The structures appear in SMILES notation.

Test [1] concerns the target T1, Ectonucleoside triphosphate diphosphohydrolase 1 (Homo sapiens, UniProt P49961).
T1 sequence (P49961 whole entry): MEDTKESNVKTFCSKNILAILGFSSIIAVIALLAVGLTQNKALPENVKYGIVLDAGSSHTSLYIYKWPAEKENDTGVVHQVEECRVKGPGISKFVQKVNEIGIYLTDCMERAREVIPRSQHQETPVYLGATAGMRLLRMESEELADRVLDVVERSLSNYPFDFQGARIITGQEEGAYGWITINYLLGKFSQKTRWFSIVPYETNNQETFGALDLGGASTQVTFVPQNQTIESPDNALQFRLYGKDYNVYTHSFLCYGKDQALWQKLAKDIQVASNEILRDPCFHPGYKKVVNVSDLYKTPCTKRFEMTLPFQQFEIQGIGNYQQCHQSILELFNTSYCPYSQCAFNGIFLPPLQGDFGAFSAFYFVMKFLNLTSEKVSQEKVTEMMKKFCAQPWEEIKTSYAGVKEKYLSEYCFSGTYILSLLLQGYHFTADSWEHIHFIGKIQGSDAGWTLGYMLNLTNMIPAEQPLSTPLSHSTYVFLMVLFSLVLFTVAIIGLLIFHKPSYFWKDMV
Put plainly: Inhibition of human CD39 using ATP as substrate preincubated for 3 mins followed by substrate addition and measured after 10 to 15 mins by Malachite green reagent based assay.

Test [2] concerns the target T1, Ectonucleoside triphosphate diphosphohydrolase 1. The test is described as follows: Inhibition of human CD39 using ATP as substrate preincubated for 3 mins followed by substrate addition and measured after 10 to 15 mins by Cheng-Prusoff analysis. The settings on record: read-out: Ki(app).
Test [3] in a line: Inhibition of rat NTPDase3 expressed in CHO cells using ATP as substrate incubated for 10 mins by UV absorbance method. Type of test: cell-based.
A short description of test [4]: Selectivity ratio of Ki for rat NTPDase3 expressed in CHO cells to Ki for rat CD39 expressed in CHO cells.
The target in test [5] is T2, Ectonucleoside triphosphate diphosphohydrolase 1 (Rattus norvegicus, UniProt P97687).
T2 sequence (P97687 whole entry): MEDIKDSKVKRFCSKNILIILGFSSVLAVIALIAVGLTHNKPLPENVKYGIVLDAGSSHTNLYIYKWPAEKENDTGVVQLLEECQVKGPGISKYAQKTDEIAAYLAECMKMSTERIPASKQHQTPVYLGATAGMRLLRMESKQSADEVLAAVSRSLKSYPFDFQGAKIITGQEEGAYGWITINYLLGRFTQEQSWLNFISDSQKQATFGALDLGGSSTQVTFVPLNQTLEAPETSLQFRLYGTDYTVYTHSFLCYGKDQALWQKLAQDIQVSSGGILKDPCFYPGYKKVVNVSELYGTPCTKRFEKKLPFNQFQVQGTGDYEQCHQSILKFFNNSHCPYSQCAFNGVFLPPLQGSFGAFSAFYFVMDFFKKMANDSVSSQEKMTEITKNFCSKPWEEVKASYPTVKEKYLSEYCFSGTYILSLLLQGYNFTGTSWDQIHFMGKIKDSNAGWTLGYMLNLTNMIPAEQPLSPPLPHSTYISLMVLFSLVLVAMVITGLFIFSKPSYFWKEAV
The test is described as follows: Inhibition of rat CD39 expressed in CHO cells using ATP as substrate incubated for 10 mins by UV absorbance method. The test is classed as cell-based. The settings on record: cho.

Test [6] deals with T3, Ectonucleoside triphosphate diphosphohydrolase 2 (Rattus norvegicus, UniProt O35795).
T3 sequence (O35795 whole entry): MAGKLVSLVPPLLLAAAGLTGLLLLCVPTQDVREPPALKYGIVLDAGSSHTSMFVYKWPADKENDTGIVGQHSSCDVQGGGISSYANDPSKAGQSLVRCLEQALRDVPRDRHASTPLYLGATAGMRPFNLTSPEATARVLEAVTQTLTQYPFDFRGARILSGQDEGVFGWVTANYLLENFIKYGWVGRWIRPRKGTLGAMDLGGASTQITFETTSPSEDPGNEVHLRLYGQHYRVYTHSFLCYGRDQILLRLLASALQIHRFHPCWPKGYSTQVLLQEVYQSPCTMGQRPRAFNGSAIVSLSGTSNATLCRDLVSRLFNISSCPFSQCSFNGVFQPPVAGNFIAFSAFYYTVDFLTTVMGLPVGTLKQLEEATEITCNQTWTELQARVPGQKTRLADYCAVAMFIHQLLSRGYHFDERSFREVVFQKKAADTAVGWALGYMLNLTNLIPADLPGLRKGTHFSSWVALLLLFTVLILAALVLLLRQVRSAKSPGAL
The test is described as follows: Inhibition of rat NTPDase2 expressed in CHO cells using ATP as substrate incubated for 10 mins by UV absorbance method. The test is classed as cell-based. Particulars: cho.

The nature of test [7]: Selectivity ratio of Ki for rat NTPDase2 expressed in CHO cells to Ki for rat CD39 expressed in CHO cells.
Test [8] addresses T4, Ectonucleoside triphosphate diphosphohydrolase 3 (Homo sapiens, UniProt O75355).
T4 sequence (O75355 whole entry): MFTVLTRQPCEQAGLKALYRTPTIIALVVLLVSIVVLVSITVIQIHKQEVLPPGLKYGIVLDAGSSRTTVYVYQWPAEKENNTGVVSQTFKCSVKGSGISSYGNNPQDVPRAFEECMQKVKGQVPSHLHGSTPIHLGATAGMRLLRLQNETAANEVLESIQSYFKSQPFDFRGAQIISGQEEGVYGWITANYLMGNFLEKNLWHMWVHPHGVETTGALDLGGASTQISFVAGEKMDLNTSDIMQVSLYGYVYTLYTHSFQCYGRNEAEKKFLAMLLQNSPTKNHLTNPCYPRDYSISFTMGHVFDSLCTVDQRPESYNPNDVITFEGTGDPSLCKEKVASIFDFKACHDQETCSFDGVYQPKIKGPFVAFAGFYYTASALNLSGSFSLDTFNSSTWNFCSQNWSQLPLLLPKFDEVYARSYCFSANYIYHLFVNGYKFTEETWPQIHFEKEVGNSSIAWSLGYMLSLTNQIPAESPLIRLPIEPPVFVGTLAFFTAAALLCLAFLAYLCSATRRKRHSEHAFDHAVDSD
The test is described as follows: Competitive inhibition of human NTPDase3 using ATP as substrate preincubated for 3 mins followed by substrate addition and measured after 15 mins by Dixon and Cornish-Bowden plot analysis.

In test [9] the target is T5, Ectonucleoside triphosphate diphosphohydrolase 8 (Homo sapiens, UniProt Q5MY95).
T5 sequence (Q5MY95 whole entry): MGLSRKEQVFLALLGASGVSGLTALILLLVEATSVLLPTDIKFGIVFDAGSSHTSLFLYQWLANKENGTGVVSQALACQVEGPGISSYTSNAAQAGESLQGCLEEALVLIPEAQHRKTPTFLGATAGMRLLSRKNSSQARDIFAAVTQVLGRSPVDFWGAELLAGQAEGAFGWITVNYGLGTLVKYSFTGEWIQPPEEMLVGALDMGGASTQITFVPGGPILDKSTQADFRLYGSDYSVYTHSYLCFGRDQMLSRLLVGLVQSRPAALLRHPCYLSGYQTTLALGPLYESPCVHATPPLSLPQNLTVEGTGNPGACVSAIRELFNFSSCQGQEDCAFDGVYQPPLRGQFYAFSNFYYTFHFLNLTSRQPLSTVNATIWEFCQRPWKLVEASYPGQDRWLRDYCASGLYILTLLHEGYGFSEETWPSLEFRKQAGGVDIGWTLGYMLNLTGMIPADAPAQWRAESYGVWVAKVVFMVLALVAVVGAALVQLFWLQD
The test is described as follows: Inhibition of human NTPDase8 expressed in green monkey Cos-7 cells using ATP as substrate preincubated for 3 mins followed by substrate addition by malachite green reagent based assay. Type of test: cell-based.

The target of test [10] is T6, Ectonucleoside triphosphate diphosphohydrolase 1 (Mus musculus, UniProt P55772).
T6 sequence (P55772 whole entry): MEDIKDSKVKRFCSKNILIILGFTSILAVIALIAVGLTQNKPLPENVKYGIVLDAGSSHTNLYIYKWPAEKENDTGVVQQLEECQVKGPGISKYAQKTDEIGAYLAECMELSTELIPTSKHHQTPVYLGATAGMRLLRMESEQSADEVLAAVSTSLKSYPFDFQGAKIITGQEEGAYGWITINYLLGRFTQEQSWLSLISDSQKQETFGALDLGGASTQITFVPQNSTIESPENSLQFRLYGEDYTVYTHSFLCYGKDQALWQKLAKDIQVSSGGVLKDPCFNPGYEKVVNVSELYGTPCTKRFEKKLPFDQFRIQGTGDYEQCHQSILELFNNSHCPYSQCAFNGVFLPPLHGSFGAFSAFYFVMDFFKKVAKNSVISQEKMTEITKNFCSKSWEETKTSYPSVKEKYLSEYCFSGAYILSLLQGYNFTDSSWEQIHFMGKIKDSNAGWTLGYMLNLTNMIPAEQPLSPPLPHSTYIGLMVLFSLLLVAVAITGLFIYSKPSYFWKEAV
Put plainly: Inhibition of mouse CD39 expressed in green monkey Cos-7 cells using ATP as substrate preincubated for 3 mins followed by substrate addition by malachite green reagent based assay. The test is classed as cell-based.

In the case of `CCCCSc1nc2c(N)ncnc2n1[C@@H]1O[C@H](COP(=O)(O)OP(=O)(O)OP(=O)(O)O)[C@@H](O)[C@H]1O`, in [1], the IC50 came to 5.6 µM. Also, in test [2], the Ki worked out at 0.8 µM.

Turning to `Nc1c(S(=O)(=O)[O-])cc(Nc2ccc3ccccc3c2)c2c1C(=O)c1ccccc1C2=O.[Na+]`, the Ki in test [3] is 2.22 µM; in [5], 0.328 µM; in test [6], 19.1 µM. For the same molecule, the “Ratio Ki” value stood at 7 in test [4] and 58 in test [7].

`CCN(CC)c1ncnc2c1ncn2[C@@H]1O[C@H](COP(=O)(O)OP(=O)(O)C(Br)(Br)P(=O)(O)O)[C@@H](O)[C@H]1O` came in with a Ki in test [8] of 18 µM.

`Cc1ccc(C(=O)Nc2ccc(S(=O)(=O)O)c3cc(S(=O)(=O)O)cc(S(=O)(=O)O)c23)cc1NC(=O)c1cccc(NC(=O)Nc2cccc(C(=O)Nc3cc(C(=O)Nc4ccc(S(=O)(=O)O)c5cc(S(=O)(=O)O)cc(S(=O)(=O)O)c45)ccc3C)c2)c1` [SURAMIN]: the IC50 in test [9] and in test [10] was above 100 µM each time.

The term IC50 denotes the point on the concentration scale where inhibition reaches its midpoint.

The values above are taken from ChEMBL document CHEMBL4680277, “Targeting Metabolism of Extracellular Nucleotides via Inhibition of Ectonucleotidases CD73 and CD39” (J Med Chem, 2020).
